Data from ChEMBL document CHEMBL1126493, “Conformationally constrained analogues of diacylglycerol (DAG). 4. Interaction of -alkylidene--lactones with protein kinase C (PK-C)” (Bioorg Med Chem Lett, 1993).
pKi: −log10 of the molar value.

Assays:
[1] = target: Protein kinase C, PKC; classical/novel; experiment: Inhibition of [20-3H]phorbol-12,13-dibutyrate (PDBU) binding to protein kinase C; type: protein assay
[2] = target: Protein kinase C alpha type (Homo sapiens, UniProt P17252); experiment: Inhibition of [20-3H]phorbol-12,13-dibutyrate (PDBU) binding to protein kinase C (alpha)

| SMILES | Ki [1] | pKi [2] |
| --- | --- | --- |
| CCCCCCCCCCCCCC[C@H]1C(=O)O[C@@H](CO)[C@@H]1OC(C)=O | 600 nM | 6.30 |
| CCCCCCCCCCCCCC[C@@H]1C(=O)O[C@@H](CO)[C@@H]1OC(C)=O |  | 6.22 |
